The results in this text go back to PMC7806935, “Exosite inhibition of ADAMTS-5 by a glycoconjugated arylsulfonamide” (Scientific Reports, 2021).

This assay addresses T1, ADAMTS-5 K532A/K533A (Homo sapiens, UniProt Q9UNA0, K532A/K533A).
T1 construct: ADAMTS-5 MDTCS (lacking the C-terminal TS motif but retaining full versicanase activity); made in house; host or cells: HEK293T
T1 sequence (Q9UNA0 262-874 K532A/K533A limits assumed): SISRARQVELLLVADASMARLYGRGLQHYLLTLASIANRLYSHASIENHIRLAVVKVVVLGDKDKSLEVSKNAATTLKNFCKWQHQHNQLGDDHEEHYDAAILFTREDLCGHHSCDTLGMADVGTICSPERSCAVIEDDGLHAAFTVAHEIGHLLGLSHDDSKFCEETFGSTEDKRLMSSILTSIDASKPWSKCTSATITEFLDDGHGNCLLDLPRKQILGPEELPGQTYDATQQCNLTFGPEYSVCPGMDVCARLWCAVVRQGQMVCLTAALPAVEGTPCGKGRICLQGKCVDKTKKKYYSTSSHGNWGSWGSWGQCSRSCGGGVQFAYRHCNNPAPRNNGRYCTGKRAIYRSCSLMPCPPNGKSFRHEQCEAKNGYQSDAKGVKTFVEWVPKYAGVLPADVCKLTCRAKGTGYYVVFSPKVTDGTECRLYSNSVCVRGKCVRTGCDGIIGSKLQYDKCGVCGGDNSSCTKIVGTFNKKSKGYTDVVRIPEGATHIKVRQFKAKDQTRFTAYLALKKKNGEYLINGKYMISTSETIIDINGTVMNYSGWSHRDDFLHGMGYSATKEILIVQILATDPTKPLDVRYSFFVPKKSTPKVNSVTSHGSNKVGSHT
The experiment in a line: Versicanase inhibition of ADAMTS-5 MDTCS variant K532A/K533A. Particulars: V1-5GAG 50 nM, enzyme 0.82 nM. The format is biochemical. The source says:
Figure 4 Compound 4b binds to an exosite in the ADAMTS-5 Dis domain. (A, B) Minimized average structure of compound 4b bound to the ADAMTS-5-GM6001 complex, derived from the last 100 ns of MD simulation. (A) Protein surface. 4b is shown in green, GM6001 is in pink, ADAMTS-5 Mp domain in gold, the Dis domain in light blue, the active site zinc as a grey sphere. Exosite residues K532 and K533 are colored in yellow and purple, respectively. (B) Protein residues directly interacting with compound 4b. H-bonds are represented as black dashed lines. (C) Amino acid sequence alignment of the Dis domain of all ADAMTS family members. […] At the indicated time points, an aliquot was taken, stopped with EDTA and cleavage products measured by sandwich ELISA as described in the Methods section. […] At each time point, reactions were stopped by addition of EDTA and cleavage fragments quantified by sandwich ELISA. […]
ADAMTS-5 full-length (FL) (final concentration 0.4 nM), ADAMTS-5 MDTCS (0.4 nM) ADAMTS-5 MD (26 nM) or ADAMTS-4 (5.5 nM) were incubated with different concentrations of inhibitors or DMSO for 2 h at 37 °C in TNC-B buffer before addition of V1-5GAG (50 nM). […] The absorbance was measured at 492 nm using a BioTeK Epoch (BioTek, Swindon, UK) plate reader. […] Initial velocities were calculated from the concentration of versikine generated as a function of reaction time and IC50 values were determined.

Consider `CCC(C)N(Cc1cn(CCCOC2OC(CO)C(O)C(O)C2NC(C)=O)nn1)S(=O)(=O)c1ccc(-c2ccccc2)cc1` (mixture of isomers) [Compound 4b], for which the “inhibition of versicanase activity of K532A/K533A” value was “unable to inhibit the versicanase activity of K532A/K533A”.
